Laboratory results reported in US20220218852A1, “NOVEL RADIOLABELLED CXCR4-TARGETING COMPOUNDS FOR DIAGNOSIS AND THERAPY” (PROVINCIAL HEALTH SERVICES AUTHORITY, priority 2019, published 2022).
Where two headings read alike, the source gives them in different places. Positions of bridges follow the written chain, without caps; N, C: chain ends. Non-standard residues stand in square brackets, D forms with d. Residues, ends and D or L forms follow the SMILES beside them. Groups on a side chain read outwards from the residue. *: point of attachment. DOTA = O=C(O)CN1CCN(CC(=O)O)CCN(CC(=O)*)CCN(CC(=O)O)CC1; 2Nal = N[C@@H](Cc1ccc2ccccc2c1)C(=O)O; Lys(iPr) = CC(C)NCCCC[C@H](N)C(=O)O

Assay: Biodistribution in Z138 tumor-bearing mice
Assay type: in vivo
Conditions: male, mouse, iv, total radioactivity
Experimental: For Daudi, Z138, GRANTA519 and Jeko1 xenografts, male NOD.Cg-Rag1^tm1MomII2rg^tm1Wjl/SzJ (NRG) mice were subcutaneously inoculated on the left flank with 5×10^6 cells (100 μL; 1:1 ratio of PBS/Matrigel) and tumors were grown to a size of 200-500 mm^3. For PC-3 xenografts, male NOD.Cg-Rag1^tm1MomII2rg^tm1Wjl/SzJ (NRG) mice were subcutaneously inoculated on the left flank with 5×10^6 PC-3 cells (100 μL; 1:1 ratio of PBS/Matrigel) and tumors were grown to a size of 200-400 mm^3.
The mice were euthanized via CO2 inhalation while anesthetized with isoflurane. Tissues were harvested, washed in PBS, blotted dry, weighed, and measured on a Hidex AMG Automatic Gamma Counter.

[1] = NOD.Cg-Rag1^tm1MomII2rg^tm1Wjl/SzJ (NRG), stomach, read-out: Biodistribution Stomach
[2] = NOD.Cg-Rag1^tm1MomII2rg^tm1Wjl/SzJ (NRG), testes, read-out: Biodistribution Testes
[3] = NOD.Cg-Rag1^tm1MomII2rg^tm1Wjl/SzJ (NRG), tumour (Z138 xenograft), read-out: Biodistribution Z138 (tumour)
[4] = NOD.Cg-Rag1tm1Mom Il2rgtm1Wjl/SzJ (NRG), adrenals, read-out: Biodistribution Adrenals
[5] = NOD.Cg-Rag1tm1Mom Il2rgtm1Wjl/SzJ (NRG), heart, read-out: Biodistribution Heart
[6] = NOD.Cg-Rag1tm1Mom Il2rgtm1Wjl/SzJ (NRG), kidney, read-out: Biodistribution Kidney
[7] = NOD.Cg-Rag1tm1Mom Il2rgtm1Wjl/SzJ (NRG), liver, read-out: Biodistribution Liver
[8] = NOD.Cg-Rag1tm1Mom Il2rgtm1Wjl/SzJ (NRG), lung, read-out: Biodistribution Lung
[9] = NOD.Cg-Rag1tm1Mom Il2rgtm1Wjl/SzJ (NRG), muscle, read-out: Biodistribution Muscle
[10] = NOD.Cg-Rag1tm1Mom Il2rgtm1Wjl/SzJ (NRG), pancreas, read-out: Biodistribution Pancreas
[11] = NOD.Cg-Rag1tm1Mom Il2rgtm1Wjl/SzJ (NRG), spleen, read-out: Biodistribution Spleen

CC(C)NCCCC[C@@H]1NC(=O)[C@H](Cc2ccc(O)cc2)NC(=O)[C@H](Cc2ccccc2)NC(=O)CC[C@H](C(=O)N[C@@H](CCCCNC(C)C)C(=O)N[C@@H](CCCCNC(=O)[C@H](CCC(=O)O)NC(=O)[C@H](CCC(=O)O)NC(=O)[C@H](CCC(=O)O)NC(=O)CN2CCN(CC(=O)O)CCN(CC(=O)O)CCN(CC(=O)O)CC2)C(N)=O)NC(=O)CNC(=O)[C@H](Cc2ccc3ccccc3c2)NC(=O)[C@@H](CCCNC(=N)N)NC1=O [[^177Lu]Lu-BL02, metal not drawn] (FY[Lys(iPr)][dR][2Nal]G[dE][Lys(iPr)]K([Glu-Glu-Glu-DOTA])-NH2; lactam N-7) gave a tissue uptake at 1 h (NOD.Cg-Rag1^tm1MomII2rg^tm1Wjl/SzJ (NRG), stomach, 1 h, read-out: Biodistribution Stomach) of 0.12 %ID/g, a tissue uptake at 1 h (NOD.Cg-Rag1^tm1MomII2rg^tm1Wjl/SzJ (NRG), stomach, 1 h blocked, read-out: Biodistribution Stomach) of 0.2 %ID/g and a tissue uptake at 4 h [1] of 0.07 %ID/g. For the same molecule, the tissue uptake at 24 h [1] was 0.052 %ID/g, the tissue uptake at 72 h [1] was 0.022 %ID/g and the tissue uptake at 1 h (NOD.Cg-Rag1^tm1MomII2rg^tm1Wjl/SzJ (NRG), testes, 1 h, read-out: Biodistribution Testes) was 0.18 %ID/g. For the same molecule, the tissue uptake at 4 h [2] was 0.04 %ID/g, the tissue uptake at 24 h [2] was 0.032 %ID/g and the tissue uptake at 72 h [2] was 0.029 %ID/g. It also gave a tissue uptake at 1 h (NOD.Cg-Rag1^tm1MomII2rg^tm1Wjl/SzJ (NRG), testes, with LY2510924 7.5 μg i.p. 15 min before radiotracer, 1 h blocked, read-out: Biodistribution Testes) of 0.39 %ID/g, a tissue uptake at 1 h (NOD.Cg-Rag1^tm1MomII2rg^tm1Wjl/SzJ (NRG), tumour (Z138 xenograft), 1 h, read-out: Biodistribution Z138 (tumour)) of 17.2 %ID/g and a tissue uptake at 1 h (NOD.Cg-Rag1^tm1MomII2rg^tm1Wjl/SzJ (NRG), tumour (Z138 xenograft), 1 h blocked, read-out: Biodistribution Z138 (tumour)) of 3.75 %ID/g. It also gave a tissue uptake at 4 h [3] of 15.6 %ID/g, a tissue uptake at 24 h [3] of 8.79 %ID/g and a tissue uptake at 72 h [3] of 3.57 %ID/g. For the same molecule, the tissue uptake at 1 h (NOD.Cg-Rag1tm1Mom Il2rgtm1Wjl/SzJ (NRG), adrenals, 1 h, read-out: Biodistribution Adrenals) was 0.46 %ID/g, the tissue uptake at 1 h (NOD.Cg-Rag1tm1Mom Il2rgtm1Wjl/SzJ (NRG), adrenals, 1 h blocked, read-out: Biodistribution Adrenals) was 0.47 %ID/g and the tissue uptake at 4 h [4] was 0.13 %ID/g. It also gave a tissue uptake at 24 h [4] of 0.117 %ID/g, a tissue uptake at 72 h [4] of 0.073 %ID/g and a tissue uptake at 1 h (NOD.Cg-Rag1tm1Mom Il2rgtm1Wjl/SzJ (NRG), heart, 1 h, read-out: Biodistribution Heart) of 0.18 %ID/g. For the same molecule, the tissue uptake at 1 h (NOD.Cg-Rag1tm1Mom Il2rgtm1Wjl/SzJ (NRG), heart, 1 h blocked, read-out: Biodistribution Heart) was 0.46 %ID/g, the tissue uptake at 4 h [5] was 0.05 %ID/g and the tissue uptake at 24 h [5] was 0.035 %ID/g. For the same molecule, the tissue uptake at 72 h [5] was 0.022 %ID/g, the tissue uptake at 1 h (NOD.Cg-Rag1tm1Mom Il2rgtm1Wjl/SzJ (NRG), kidney, 1 h, read-out: Biodistribution Kidney) was 3.87 %ID/g and the tissue uptake at 1 h (NOD.Cg-Rag1tm1Mom Il2rgtm1Wjl/SzJ (NRG), kidney, 1 h blocked, read-out: Biodistribution Kidney) was 10.9 %ID/g. For the same molecule, the tissue uptake at 4 h [6] was 3.27 %ID/g, the tissue uptake at 24 h [6] was 1.43 %ID/g and the tissue uptake at 72 h [6] was 0.56 %ID/g. For the same molecule, the tissue uptake at 1 h (NOD.Cg-Rag1tm1Mom Il2rgtm1Wjl/SzJ (NRG), liver, 1 h, read-out: Biodistribution Liver) was 0.93 %ID/g, the tissue uptake at 1 h (NOD.Cg-Rag1tm1Mom Il2rgtm1Wjl/SzJ (NRG), liver, 1 h blocked, read-out: Biodistribution Liver) was 0.99 %ID/g and the tissue uptake at 4 h [7] was 0.92 %ID/g. It also gave a tissue uptake at 24 h [7] of 0.703 %ID/g, a tissue uptake at 72 h [7] of 0.436 %ID/g and a tissue uptake at 1 h (NOD.Cg-Rag1tm1Mom Il2rgtm1Wjl/SzJ (NRG), lung, 1 h, read-out: Biodistribution Lung) of 0.83 %ID/g. It also gave a tissue uptake at 1 h (NOD.Cg-Rag1tm1Mom Il2rgtm1Wjl/SzJ (NRG), lung, 1 h blocked, read-out: Biodistribution Lung) of 1.57 %ID/g, a tissue uptake at 4 h [8] of 0.26 %ID/g and a tissue uptake at 24 h [8] of 0.176 %ID/g. It also gave a tissue uptake at 72 h [8] of 0.184 %ID/g, a tissue uptake at 1 h (NOD.Cg-Rag1tm1Mom Il2rgtm1Wjl/SzJ (NRG), muscle, 1 h, read-out: Biodistribution Muscle) of 0.1 %ID/g and a tissue uptake at 1 h (NOD.Cg-Rag1tm1Mom Il2rgtm1Wjl/SzJ (NRG), muscle, 1 h blocked, read-out: Biodistribution Muscle) of 0.45 %ID/g. For the same molecule, the tissue uptake at 4 h [9] was 0.03 %ID/g, the tissue uptake at 24 h [9] was 0.019 %ID/g and the tissue uptake at 72 h [9] was 0.01 %ID/g. The tissue uptake at 1 h (NOD.Cg-Rag1tm1Mom Il2rgtm1Wjl/SzJ (NRG), pancreas, 1 h, read-out: Biodistribution Pancreas) was 0.14 %ID/g, the tissue uptake at 1 h (NOD.Cg-Rag1tm1Mom Il2rgtm1Wjl/SzJ (NRG), pancreas, 1 h blocked, read-out: Biodistribution Pancreas) was 0.31 %ID/g and the tissue uptake at 4 h [10] was 0.04 %ID/g. The tissue uptake at 24 h [10] was 0.034 %ID/g, the tissue uptake at 72 h [10] was 0.016 %ID/g and the tissue uptake at 1 h (NOD.Cg-Rag1tm1Mom Il2rgtm1Wjl/SzJ (NRG), spleen, 1 h, read-out: Biodistribution Spleen) was 0.56 %ID/g. The tissue uptake at 1 h (NOD.Cg-Rag1tm1Mom Il2rgtm1Wjl/SzJ (NRG), spleen, 1 h blocked, read-out: Biodistribution Spleen) was 0.56 %ID/g, the tissue uptake at 4 h [11] was 0.33 %ID/g and the tissue uptake at 24 h [11] was 0.277 %ID/g. It also gave a tissue uptake at 72 h [11] of 0.288 %ID/g.
